# Test results published in US20220168309A1 (F-STAR THERAPEUTICS, INC., priority 2019, published 2022).
# Read-outs that look alike come from different tables or passages of the source.
# Target: STING (Homo sapiens, UniProt Q86WV6)
# Assay: STING antagonist activity, cell-based ISG54 promoter-reporter luciferase measurement of IRF activity (THP-1 dual / RAW-ISG cells)
# Details: Antagonist Activity of Exemplary Compounds, cell line and agonist not given
# Method: THP-1 dual cells (InvivoGen) were cultured under 5% CO2 at 37° C. in RPMI containing 10% fetal bovine serum (FBS), 100 IU mL-1 penicillin and 100 μg mL-1 streptomycin. RAW-ISG cells (InvivoGen) were cultured under 5% CO2 at 37° C. in DMEM containing 10% fetal bovine serum (FBS), 100 IU mL-1 penicillin and 100 μg mL-1 streptomycin. THP-1 dual cells were seeded into the 96 well assay plate on the day of assay whereas RAW cells were seeded into the 96 well assay plate 18 hours before the assay.
# (§1) 50,000 cells seeded in a 96-well flat bottom white assay plate were treated with different concentrations (10 uM to 0.01 uM) of compounds for 1 h followed by STING induction with either 30 nM SB 11285 or 10 ug/mL 2′-3′ cGAMP. The cells were then incubated for 20 hours @ 37° C. in CO2 incubator before measuring IRF activation by using Quanti-Luc (InvivoGen). The % inhibition was calculated as 100−{[(luminescence of COI treated well/luminescence of non-COI treated well)/100]×100}. IC50 was calculated by plotting in Xlfit.
# as §1, with “1 μM” for “30 nM”
# THP1-Dual-WT cells (InvivoGen) were plated into 96-well flat bottom plate at 5×10^4 cells/140 μL/well in triplicate. Cells were then treated with diluted antagonist compounds at 10 μL/well for 1 h, followed by treatment with compounds or 2′3′-cGAMP/lipo mixture for 18 h. The levels of IRF activity were determined using Quanti-luc (InvivoGen) and calculated against IRF activity in DMSO-treated cells. IC50 and CC50 values were calculated using Xlfit.
# STING, sequence (Q86WV6 whole entry): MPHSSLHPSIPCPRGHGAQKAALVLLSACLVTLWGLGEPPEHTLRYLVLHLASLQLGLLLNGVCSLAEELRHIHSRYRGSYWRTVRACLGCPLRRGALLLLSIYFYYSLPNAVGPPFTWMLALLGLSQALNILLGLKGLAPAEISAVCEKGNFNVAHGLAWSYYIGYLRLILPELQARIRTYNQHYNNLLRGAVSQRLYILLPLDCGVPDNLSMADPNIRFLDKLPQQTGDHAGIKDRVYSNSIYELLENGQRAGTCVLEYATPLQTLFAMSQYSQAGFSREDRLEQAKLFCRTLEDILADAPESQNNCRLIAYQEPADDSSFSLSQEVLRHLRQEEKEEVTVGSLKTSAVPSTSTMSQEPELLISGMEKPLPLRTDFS
smiles,measurement,setting,value
"COC(=O)CCCCCCCCCCCCCCCn1c(CO)nc2nc(Cl)nc(Cl)c21 [Compound 93, Methyl 16-(2,6-dichloro-8-(hydroxymethyl)-7H-purin-7-yl)hexadecanoate]",IC50,read-out: IC50,1 to 1000 nM
"CNC(=O)CCCCCCCCCCCCCCCn1c(C)nc2nc(Cl)nc(Cl)c21 [Compound 94, 16-(2,6-dichloro-8-methyl-7H-purin-7yl)-N-methylhexadecanamide]",IC50,read-out: IC50,1 to 1000 nM
"Cc1nc2nc(Cl)nc(S(=O)(=O)C(C)C)c2n1CCCCCCCCCCCCCCCC(=O)OC(C)C [Compound 96, isopropyl 16-(2-chloro-6-(isopropylsulfonyl)-8-methyl-7H-purin-7-yl)hexadecanoate]",IC50,read-out: IC50,1 to 1000 nM
"CCCCCCCCCCCCCCCCn1c(C)nc2nc(Cl)nc(S(=O)(=O)C(C)C)c21 [Compound 97, 2-chloro-7-hexadecyl-6-(isopropylsulfonyl)-8-methyl-7H-purine]",IC50,read-out: IC50,1 to 1000 nM
"Cc1nc2nc(Cl)nc(Cl)c2n1CCCCCCCCCCCCCCCC(=O)OCC(C)O (stereo not shown) [Compound 98, 2-hydroxypropyl 16-(2,6-dichloro-8-methyl-7H-purin-7-yl)hexadecanoate]",IC50,read-out: IC50,1000 to 5000 nM
"CCOCCOCCOC(=O)CCCCCCCCCCCCCCCn1c(C)nc2nc(Cl)nc(Cl)c21 [Compound 99, 2-(2-ethoxyethoxy)ethyl 16-(2,6-dichloro-8-methyl-7H-purin-7-yl)hexadecanoate]",IC50,read-out: IC50,1000 to 5000 nM
"Cc1nc2c(Cl)nc(Cl)nc2n1CCCCCCCCCCCCCCCc1nnnn1C [Compound 100, 2,6-dichloro-8-methyl-9-(15-(1-methyl-1H-tetrazol-5-yl)pentadecyl)-9H-purine]",IC50,read-out: IC50,5000 to 10000 nM
"Cc1nc2nc(Cl)nc(Cl)c2n1CCCCCCCCCCCCCCCc1nnnn1C [Compound 101, 2,6-dichloro-8-methyl-7-(15-(1-methyl-1H-tetrazol-5-yl)pentadecyl)-7H-purine]",IC50,read-out: IC50,1 to 1000 nM
"Cc1nc2nc(Cl)nc(Cl)c2n1CCCCCCCCCCN1CCOCC1 [Compound 102, 4-(10-(2,6-dichloro-8-methyl-7H-purin-7-yl)decyl)morpholine]",IC50,read-out: IC50,1 to 1000 nM
"Cc1nc2nc(Cl)nc(Cl)c2n1C/C=C/Cn1c(C)nc2nc(Cl)nc(Cl)c21 [Compound 103, (E)-1,4-bis(2,6-dichloro-8-methyl-7H-purin-7-yl)but-2-ene]",IC50,read-out: IC50,5000 to 10000 nM
"Cc1nc2nc(Cl)nc(Cl)c2n1CCCCCCCCCCCCCCCC(=O)OC[C@H](O)CO [Compound 104, (R)-2,3-dihydroxypropyl 16-(2,6-dichloro-8-methyl-7H-purin-7-yl)hexadecanoate]",IC50,read-out: IC50,1 to 1000 nM
"Cc1nc2nc(Cl)nc(Cl)c2n1CCCCCCCCCCCCCCCCN1CCOCC1 [Compound 105, 4-(16-(2,6-dichloro-8-methyl-7H-purin-7-yl)hexadecyl)morpholine]",IC50,read-out: IC50,1 to 1000 nM
"Cc1nc2nc(Cl)nc(Cl)c2n1CCCCCCCCCCCCCCCC(=O)OC(CO)CO [Compound 106, 1,3-dihydroxypropan-2-yl 16-(2,6-dichloro-8-methyl-7H-purin-7-yl)hexadecanoate]",IC50,read-out: IC50,1000 to 5000 nM
"Cc1nc2nc(Cl)nc(Cl)c2n1CCCCCCCCCCCCCCCC(=O)OC[C@@H](O)CO [Compound 107, (S)-2,3-dihydroxypropyl 16-(2,6-dichloro-8-methyl-7H-purin-7-yl)hexadecanoate]",IC50,read-out: IC50,1000 to 5000 nM
"COC(=O)CCCCCCCCCCCCCCCn1c(C)nc2nc(Cl)nc(OCCN(C)C)c21 [Compound 108, methyl 16-(2-chloro-6-(2-(dimethylamino)ethoxy)-8-methyl-7H-purin-7-yl)hexadecanoate]",IC50,read-out: IC50,1000 to 5000 nM
"Cc1nc2nc(Cl)nc(S(C)(=O)=O)c2n1CCCCCCCCCCCCCCCC(=O)OC(C)C [Compound 109, isopropyl 16-(2-chloro-8-methyl-6-(methylsulfonyl)-7H-purin-7-yl)hexadecanoate]",IC50,read-out: IC50,1 to 1000 nM
"Cc1nc2nc(Cl)nc(Cl)c2n1CCCCCCCCCCCCCCCCP(=O)(O)O [Compound 110, (16-(2,6-dichloro-8-methyl-7H-purin-7-yl)hexadecyl)phosphonic acid]",IC50,read-out: IC50,> 20000 nM
"Cc1nc2nc(Cl)nc(S(=O)(=O)C(C)C)c2n1CCCCCCCCCCCCCCCCO [Compound 111, 16-(2-chloro-6-(isopropylsulfonyl)-8-methyl-7H-purin-7-yl)hexadecan-1-ol]",IC50,read-out: IC50,1 to 1000 nM
"CC1Nc2nc(Cl)nc(S(=O)(=O)C(C)C)c2N1CCCCCCCCCCCCCCCCO (stereo not shown) [Compound 112, 16-(2-chloro-6-(isopropylsulfonyl)-8-methyl-8,9-dihydro-7H-purin-7-yl)hexadecan-1-ol]",IC50,read-out: IC50,1000 to 5000 nM
"Cc1nc2nc(Cl)nc(Cl)c2n1CCCCCCCCCCN1CCN(C)CC1 [Compound 113, 2,6-dichloro-8-methyl-7-(10-(4-methylpiperazin-1-yl)decyl)-7H-purine]",IC50,read-out: IC50,1000 to 5000 nM
"COC(=O)CCCCCCCCCCCCCCCn1c(CO)nc2nc(Cl)nc(S(=O)(=O)C(C)C)c21 [Compound 114, Methyl 16-(2-chloro-8-(hydroxymethyl)-6-(isopropylsulfonyl)-7H-purin-7-yl)hexadecanoate]",IC50,read-out: IC50,1 to 1000 nM
"Cc1nc2nc(Cl)nc(S(=O)(=O)C(C)C)c2n1CCCCCCCCCC[N+]1([O-])CCOCC1 [Compound 115, 4-(10-(2-chloro-6-(isopropylsulfonyl)-8-methyl-7H-purin-7-yl)decyl)-4-(11-oxidanyl)-4l4-morpholine]",IC50,read-out: IC50,> 20000 nM
"COC(=O)CCCn1c(C)nc2nc(Cl)nc(Cl)c21 [Compound 116, methyl 4-(2,6-dichloro-8-methyl-7H-purin-7-yl)butanoate]",IC50,read-out: IC50,5000 to 10000 nM
"CCN(CC)c1nc2nc(Cl)nc(Cl)c2n1CCCCCCCCCCCCCCCC(=O)OC [Compound 117, methyl 16-(2,6-dichloro-8-(diethylamino)-7H-purin-7-yl)hexadecanoate]",IC50,,5000 to 10000 nM
"COC(=O)CCCn1c(C)nc2nc(Cl)nc(S(=O)(=O)C(C)C)c21 [Compound 118, methyl 4-(2-chloro-6-(isopropylsulfonyl)-8-methyl-7H-purin-7-yl)butanoate]",IC50,read-out: IC50,1000 to 5000 nM
"CCCCCCCCCCCCCCCCn1c(CO)nc2nc(Cl)nc(Cl)c21 [Compound 119, (2,6-dichloro-7-hexadecyl-7H-purin-8-yl)methanol]",IC50,read-out: IC50,1 to 1000 nM
"COC(=O)CCCCn1c(C)nc2nc(Cl)nc(S(=O)(=O)C(C)C)c21 [Compound 121, methyl 5-(2-chloro-6-(isopropylsulfonyl)-8-methyl-7H-purin-7-yl)pentanoate]",IC50,read-out: IC50,1000 to 5000 nM
"CCCCCCCCCCCCCCCCn1c(CO)nc2nc(Cl)nc(S(=O)(=O)C(C)C)c21 [Compound 122, (2-chloro-7-hexadecyl-6-(isopropylsulfonyl)-7H-purin-8-yl)methanol]",IC50,read-out: IC50,1 to 1000 nM
"COC(=O)CCCCCCCCCn1c(C)nc2nc(Cl)nc(Cl)c21 [Compound 123, Methyl 10-(2,6-dichloro-8-methyl-7H-purin-7-yl)decanoate]",IC50,read-out: IC50,1000 to 5000 nM
"COC(=O)CCCCCCCCCn1c(C)nc2nc(Cl)nc([S+]([O-])C(C)C)c21 (stereo not shown) [Compound 124, methyl 10-(2-chloro-6-(isopropylsulfinyl)-8-methyl-7H-purin-7-yl)decanoate]",IC50,read-out: IC50,1 to 1000 nM
"COC(=O)CCCCCCCCCn1c(C)nc2nc(Cl)nc(S(=O)(=O)C(C)C)c21 [Compound 125, Methyl 10-(2-chloro-6-(isopropylsulfonyl)-8-methyl-7H-purin-7-yl)decanoate]",IC50,read-out: IC50,1000 to 5000 nM
"COC(=O)CCCCCCCCCCCCCCCn1c(C)nc2nc(C#N)nc(C#N)c21 [Compound 126, Methyl 16-(2,6-dicyano-8-methyl-7H-purin-7-yl)hexadecanoate]",IC50,read-out: IC50,> 20000 nM
"Cc1nc2nc(Cl)nc([S+]([O-])C(C)C)c2n1CCCCCCCCCC[N+]1([O-])CCOCC1 (stereo not shown) [Compound 127, 4-(10-(2-chloro-6-(isopropylsulfinyl)-8-methyl-7H-purin-7-yl)decyl)morpholine 4-oxide]",IC50,read-out: IC50,> 20000 nM
"COC(=O)CCCCCCCCCCCCCCCn1c(C)nc2nc(Cl)nc([S+]([O-])C(C)C)c21 (stereo not shown) [Compound 128, methyl 16-(2-chloro-6-(isopropylsulfinyl)-8-methyl-7H-purin-7-yl)hexadecanoate]",IC50,read-out: IC50,1 to 1000 nM
"Cc1nc2nc(Cl)nc(SC(C)C)c2n1CCCCCCCCCC[N+]1([O-])CCOCC1 [Compound 129, 4-(10-(2-chloro-6-(isopropylthio)-8-methyl-7H-purin-7-yl)decyl)morpholine 4-oxide]",IC50,read-out: IC50,> 20000 nM
COC(=O)CCCCCO[C@@H]1CCN(CCCCCCn2c(C)nc3nc(Cl)nc(Cl)c32)C1 [Compound 130],IC50,read-out: IC50,1 to 1000 nM
"CNC(=O)CCCCCCCCCCCCCCCn1c(C)nc2nc(Cl)nc(S(=O)(=O)C(C)C)c21 [Compound 131, 16-(2-chloro-6-(isopropylsulfonyl)-8-methyl-7H-purin-7-yl)-N-methylhexadecaanamide]",IC50,read-out: IC50,1 to 1000 nM
